Where no end group is shown, it is not given here.
System: C. albicans ATCC 10231
Test: Fungal growth inhibition assay, salt tolerance (NaCl)
Assay type: cell-based, Candida albicans
Conditions: NaCl concentrations of 100 mM; 24 h
Description: For fungal growth assays, overnight cultures of C. albicans ATCC 10231 cells (yeast peptone dextrose broth, 30°C, shaking at 160 rpm) were pelleted (2000 g, 5 min), washed once in 0.5× potato dextrose broth (BD Biosciences, Franklin Lakes, NJ) and finally resuspended in the same media. Cells were seeded onto a 96-well plate (400 cells, 50 µL) and treated with an equal volume of varying concentrations of defensin in 0.5× potato dextrose broth. After incubating the samples (24 h, 30 °C), the plates were shaken to distribute the cells and growth was determined by performing a 9-well scan (600 nm) using a Spectramax M5e microplate reader (Molecular Devices, San Jose, CA). For assays testing defensin salt tolerance, C. albicans cells were instead resuspended in 1x potato dextrose broth and treated with an equal volume of CpoBD13 + NaCl solution at their intended concentrations. Propidium iodide (PI) uptake assays were performed by preparing the cells as per the standard growth inhibition assay however they were instead seeded onto a U-bottom 96-well plate (50,000 cells, 25 µL). […] For PI uptake experiments performed at a specific pH, the same method was followed with the exception that cells were resuspended in 1× potato dextrose broth while defensin titrations were diluted in 40 mM MES buffer at the intended pH. An example PI uptake gating strategy is presented in Supplementary Fig. 1d.

## CpoBD13: saltwater crocodile β-defensin 13, histidine-rich, three disulphide bonds, recombinantly expressed in Pichia pastoris (NGSYYSTLQCRNNHGHCRRLCFHGEQWIGNCNGRHQHCCK; disulfide (positions not given here); also: three disulphide bonds, pairings not given here)
  antifungal activity in NaCl: retained antifungal activity

From paper PMC9977887, “Crocodile defensin (CpoBD13) antifungal activity via pH-dependent phospholipid targeting and membrane disruption” (Nature Communications, 2023)
